According to US20110039824A1, “1,2,3,6-tetrahydroazepino[4,5-b]indole-5-carboxylate nuclear receptor inhibitors” (Wyeth, priority 2008, published 2011):

Legend:
PAMPA permeability = type: in vitro ADME
LDLR KO Mouse Model = experiment: Mouse serum triglyceride (TG) and cholesterol levels in LDLR -/- mice; type: in vivo; settings: daily oral gavage 7 days
Experimental: Eight-week old LDLR −/−mice were purchased from Jackson Laboratories and maintained on a chow diet. Some LDLR −/−mice were fed a western diet (AlN-76A; Purina Test Diets) as indicated. All mice were treated by daily oral gavage with vehicle or varying concentrations of compound for 7 days. On the last day after the final dose, the food was removed to allow a 3 hr fast and serum was harvested for analysis. Serum TG and cholesterol levels were determined using a Roche 912 clinical chemistry analyzer and expressed as mg/dL.

Caco2 = Caco2 permeability; type: in vitro ADME
[1] = target: T1, Progesterone Receptor (PR) (Homo sapiens, UniProt P06401); experiment: Progesterone receptor (PR) antagonism, alkaline phosphatase assay in T47D cells; type: cell-based; settings: percent inhibition @ 10 μM vs 1 nM progesterone
T1 sequence (P06401 679-933 limits assumed): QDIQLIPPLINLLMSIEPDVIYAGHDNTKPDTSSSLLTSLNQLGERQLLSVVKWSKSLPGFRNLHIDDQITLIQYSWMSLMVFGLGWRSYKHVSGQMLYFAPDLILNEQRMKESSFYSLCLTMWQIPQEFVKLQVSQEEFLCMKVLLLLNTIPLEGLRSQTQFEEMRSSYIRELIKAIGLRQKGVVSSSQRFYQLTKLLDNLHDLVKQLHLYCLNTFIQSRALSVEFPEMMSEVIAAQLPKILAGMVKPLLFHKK
Experimental: DMEM:F12 (1:1) (GIBCO, BRL) supplemented with 5% (v/v) charcoal stripped fetal bovine serum (not heat-inactivated), 100 U/ml penicillin, 100 jig/ml streptomycin, and 2 mM GlutaMax (GIBCO, BRL).
I. 0.1M Tris-HCl, pH 9.8, containing 0.2% Triton X-100 II. 0.1 M Tris-HCl, pH 9.8, containing 4 mM p-nitrophenyl phosphate (Sigma).
Frozen T47D cells were thawed in a 37° C. water bath and diluted to 280,000 cells/ml in culture medium. To each well in a 96-well plate (Falcon, Becton Dickinson Labware), 180 μl of diluted cell suspension was added. Twenty μl of reference or test compounds diluted in the culture medium were then added to each well. When testing for progestin antagonist activity, reference antiprogestins or test compounds were added in the presence of 1 nM progesterone. The cells were incubated at 37° C. in a 5% CO2/humidified atmosphere for 24 hours.
At the end of treatment, the medium was removed from the plate. Fifty μl of assay buffer I was added to each well. The plates were shaken in a titer plate shaker for […]. Then 150 μl of assay buffer II was added to each well. Optical density measurements were taken at 5 min intervals for 30 min at a test wavelength of 405 nm.

[2] = Solubility in 2% Tween/0.5% MC aq.; type: physicochemical
[3] = Pharmacokinetics (bioavailability, half life); type: in vivo
CYP450 3A4 = CYP450 3A4 (Homo sapiens, UniProt P08684); experiment: CYP450 3A4 inhibition; type: in vitro ADME
HLM stability = type: in vitro ADME; settings: human, liver microsomes; read-out: HLM (t1/2)
hERG = hERG (Homo sapiens, UniProt Q12809); experiment: hERG function; settings: values printed as concentrations; read-out: hERG function (% Inh. @ 10 μM)
CYP450 2C9 = CYP450 2C9 (Homo sapiens, UniProt P11712); experiment: CYP450 2C9 inhibition; type: in vitro ADME
Gal4/hFXR fusion protein = target: T2, Gal4/hFXR fusion protein (Homo sapiens, UniProt Q96RI1); experiment: Gal4/hFXR fusion protein agonist activity in human 293 cells (luciferase); type: cell-based; parameters: rows headed: hFXR agonist EC50; hFXR agonist eff. @ 30 μM; other: efficacy @ 30 μM; settings: efficacy @ 30 μM
T2 sequence (Q96RI1 262-486 limits assumed): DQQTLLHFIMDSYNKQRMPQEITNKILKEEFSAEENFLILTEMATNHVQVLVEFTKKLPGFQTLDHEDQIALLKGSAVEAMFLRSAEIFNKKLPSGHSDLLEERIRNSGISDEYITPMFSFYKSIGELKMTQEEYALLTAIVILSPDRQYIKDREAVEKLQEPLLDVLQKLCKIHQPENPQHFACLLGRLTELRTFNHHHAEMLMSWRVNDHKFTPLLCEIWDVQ
Experimental: • Assay Medium: Phenol red free high glucose Dulbecco's modified Eagle's medium with sodium pyruvate (Cellgro, #17-205-CV) supplemented with 10% fetal bovine serum (Gibco, 16000-044), 1% glutamax (Gibco, 35050-061), 100 units/mL penicillin and 100 μg/mL streptomycin (Gibco, 15140-122). • Culturplate-96 (PerkinElmer, 6005688) • Lysis buffer (Promega, E3971) • Luciferase assay reagent (Promega E1483)
• 1. Compounds to be tested were prepared as 2× stocks in assay medium. • 2. […] The supernatant was removed and the cells were resuspended in 1 ml assay medium. The cells were counted and diluted in assay medium to 200,000 cells per ml. The cells were then plated at 10,000 cells per well in Culturplate-96 plates in 50 uL assay medium. The cells were incubated at 37° C. for approximately 1 hour. • 3. […] All assays included 1 uM GW4064 (Maloney et al., J. Med. Chem., 2000, 43(16), 2971-2974) as a reference standard. • 4. Cells were incubated for 24 hours at 37° C.
• 5. […] The plates were analyzed for luciferase activity with luciferase assay reagent (Promega E1483). Plates were read on Victor^3V instrument using the protocol “Shuguang Luciferase assay” (dispense volume=100 uL, plate type=“Packard Viewplate”, measurement height=8 mm from bottom of plate, 5 second read per well).
• 1. For agonist single point screening, data were analyzed in Excel. […]

CYP450 2D6 = CYP450 2D6 (Homo sapiens, UniProt P10635); experiment: CYP450 2D6 inhibition; type: in vitro ADME
Chain of CYP450 2D6 (P10635 whole entry): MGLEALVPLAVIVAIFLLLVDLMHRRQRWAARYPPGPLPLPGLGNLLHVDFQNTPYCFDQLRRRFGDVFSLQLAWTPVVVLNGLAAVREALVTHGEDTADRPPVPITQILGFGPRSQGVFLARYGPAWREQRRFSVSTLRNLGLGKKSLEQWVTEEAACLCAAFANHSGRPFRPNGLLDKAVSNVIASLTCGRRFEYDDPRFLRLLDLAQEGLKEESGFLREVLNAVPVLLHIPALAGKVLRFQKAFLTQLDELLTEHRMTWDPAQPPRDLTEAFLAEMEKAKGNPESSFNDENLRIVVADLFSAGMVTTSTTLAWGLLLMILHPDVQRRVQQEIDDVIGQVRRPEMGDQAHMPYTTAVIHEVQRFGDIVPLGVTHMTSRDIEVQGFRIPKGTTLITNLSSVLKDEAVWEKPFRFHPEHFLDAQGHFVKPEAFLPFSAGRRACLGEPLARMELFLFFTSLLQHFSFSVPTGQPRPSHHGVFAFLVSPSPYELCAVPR

Chain of CYP450 2C9 (P11712 whole entry, the tested form may be a part): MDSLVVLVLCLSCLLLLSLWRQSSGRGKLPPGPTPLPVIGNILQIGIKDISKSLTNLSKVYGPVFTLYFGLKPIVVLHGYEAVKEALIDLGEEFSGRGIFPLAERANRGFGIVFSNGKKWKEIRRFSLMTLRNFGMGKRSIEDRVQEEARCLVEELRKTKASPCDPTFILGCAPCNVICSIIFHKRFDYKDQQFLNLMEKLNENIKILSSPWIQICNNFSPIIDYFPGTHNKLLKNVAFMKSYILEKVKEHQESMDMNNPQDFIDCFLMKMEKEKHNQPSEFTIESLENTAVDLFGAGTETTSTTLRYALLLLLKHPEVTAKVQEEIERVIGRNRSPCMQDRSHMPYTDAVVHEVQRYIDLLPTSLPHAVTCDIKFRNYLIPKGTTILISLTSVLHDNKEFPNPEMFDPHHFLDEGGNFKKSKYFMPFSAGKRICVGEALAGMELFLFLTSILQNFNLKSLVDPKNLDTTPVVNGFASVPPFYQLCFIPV
Chain of CYP450 3A4 (P08684 whole entry): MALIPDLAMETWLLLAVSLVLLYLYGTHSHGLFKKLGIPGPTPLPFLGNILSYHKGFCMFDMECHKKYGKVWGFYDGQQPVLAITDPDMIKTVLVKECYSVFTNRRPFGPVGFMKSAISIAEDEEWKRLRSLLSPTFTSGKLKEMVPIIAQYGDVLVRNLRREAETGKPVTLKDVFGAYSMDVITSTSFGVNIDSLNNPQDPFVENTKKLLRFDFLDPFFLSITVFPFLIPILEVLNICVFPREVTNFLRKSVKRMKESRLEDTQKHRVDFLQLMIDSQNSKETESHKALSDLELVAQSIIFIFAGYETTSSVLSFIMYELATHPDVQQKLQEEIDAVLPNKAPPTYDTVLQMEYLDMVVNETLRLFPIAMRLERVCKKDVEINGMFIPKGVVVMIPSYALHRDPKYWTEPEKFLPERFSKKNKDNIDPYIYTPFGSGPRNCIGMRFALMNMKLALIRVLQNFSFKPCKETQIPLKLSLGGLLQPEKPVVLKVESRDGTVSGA
Chain of hERG (Q12809 whole entry): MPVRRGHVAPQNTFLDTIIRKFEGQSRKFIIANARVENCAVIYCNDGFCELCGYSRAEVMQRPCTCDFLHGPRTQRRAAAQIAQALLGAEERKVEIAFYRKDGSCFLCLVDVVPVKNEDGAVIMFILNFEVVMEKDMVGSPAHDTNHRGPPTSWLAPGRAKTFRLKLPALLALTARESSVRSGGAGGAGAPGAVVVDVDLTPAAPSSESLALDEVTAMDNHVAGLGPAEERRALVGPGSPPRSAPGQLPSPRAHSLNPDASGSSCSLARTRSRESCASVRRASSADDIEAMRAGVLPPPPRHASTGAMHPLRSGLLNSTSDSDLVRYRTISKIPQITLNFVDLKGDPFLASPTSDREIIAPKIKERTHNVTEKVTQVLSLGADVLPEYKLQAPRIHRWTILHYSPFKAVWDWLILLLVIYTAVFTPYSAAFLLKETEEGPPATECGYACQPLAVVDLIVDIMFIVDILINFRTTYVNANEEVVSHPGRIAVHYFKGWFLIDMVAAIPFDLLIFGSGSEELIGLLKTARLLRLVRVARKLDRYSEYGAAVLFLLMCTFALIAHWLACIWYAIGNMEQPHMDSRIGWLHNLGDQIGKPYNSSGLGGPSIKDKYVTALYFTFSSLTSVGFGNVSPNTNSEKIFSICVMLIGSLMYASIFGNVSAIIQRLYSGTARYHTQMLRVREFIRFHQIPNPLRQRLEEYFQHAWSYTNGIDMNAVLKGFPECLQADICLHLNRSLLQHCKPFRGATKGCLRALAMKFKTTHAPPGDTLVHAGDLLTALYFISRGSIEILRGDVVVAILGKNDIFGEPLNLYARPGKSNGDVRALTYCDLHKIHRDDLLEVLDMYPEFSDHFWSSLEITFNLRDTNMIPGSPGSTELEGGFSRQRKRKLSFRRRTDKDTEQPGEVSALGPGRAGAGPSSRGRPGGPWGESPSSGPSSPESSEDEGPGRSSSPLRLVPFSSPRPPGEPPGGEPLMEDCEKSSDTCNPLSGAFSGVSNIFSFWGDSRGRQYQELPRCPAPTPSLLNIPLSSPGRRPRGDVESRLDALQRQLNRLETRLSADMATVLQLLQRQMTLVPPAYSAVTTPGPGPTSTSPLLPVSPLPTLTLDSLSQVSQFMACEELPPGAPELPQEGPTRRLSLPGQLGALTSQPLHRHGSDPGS

Row | PAMPA Permeability (Pe × 10^−6) (PAMPA permeability) | Transport mechanism (Caco2) | Caco2 Permeability (Pe × 10^−6) A-B (Caco2) | Caco2 Permeability (Pe × 10^−6) B-A (Caco2) | PR Antagonism (Alk. Phos. Assay @ 10 μM) [1] | 2% Tween/0.5% MC aq. sol. (mg/mL) [2] | 2% Tween/0.5% MC aq. sol. (μM) [2] | Caco2 Permeability, class (Caco2; class in words) | Bioavailability (dosed in aqueous MC/Tween) [3] | CYP450 3A4 % I @ 3 μM (CYP450 3A4) | half-life (HLM stability) | CYP450 2C9 % I @ 3 μM (CYP450 2C9) | hFXR agonist eff. @ 30 μM (Gal4/hFXR fusion protein) | CYP450 2D6 % I @ 3 μM (CYP450 2D6) | SMILES | Reduction of Total Cholesterol in a LDLR KO Mouse Model (Female) @ 10 mpk (LDLR KO Mouse Model) | Reduction of Triglycerides in a LDLR KO Mouse Model (Female) @ 10 mpk (LDLR KO Mouse Model) | Reduction of Total Cholesterol in a LDLR KO Mouse Model (Male) @ 10 mpk (LDLR KO Mouse Model) | Reduction of Triglycerides in a LDLR KO Mouse Model (Male) @ 10 mpk (LDLR KO Mouse Model) | IC50 (hERG)
1 | 0.66 × 10^−6 | passive | 0.8 × 10^−6 | 0.8 × 10^−6 | 95% | 0.20 mg/mL | 355.0 µM |  |  |  |  |  |  |  | CC(C)OC(=O)C1=CN(C(=O)c2ccc(OCCCN3CCOCC3)cc2)CC(C)(C)c2c1[nH]c1cc(F)ccc21 [Example 30, Isopropyl 8-fluoro-1,1-dimethyl-3-[4-(3-morpholin-4-ylpropoxy)benzoyl]-1,2,3,6-tetrahydroazepino[4,5-b]indole-5-carboxylate] | 60% | 65% | 74% | 78% | 
2 | 0 × 10^−6 | passive | 0.5 × 10^−6 | 0.5 × 10^−6 | 44% @ 10 μM | 0.01 mg/mL | 22.0 µM | Low | poor | 43% | 18 min | 24% | 179% | 5% | CC(C)OC(=O)C1=CN(C(=O)c2ccc(F)c(F)c2)CC(C)(C)c2c1[nH]c1ccccc21 [Reference Compound 2, isopropyl-3-(3,4-difluorobenzoyl)-1,1-dimethyl-1,2,3,6-tetrahydroazepino[4,5-b]indole-5-carboxylate] | 36% | 39% | 47% | 71% | > 10 µM
3 | 0 × 10^−6 | passive |  |  | 90% | 0.19 mg/mL | 332.0 µM |  |  |  |  |  |  |  | CC(C)OC(=O)C1=CN(C(=O)c2ccc(OCCCN3CCOCC3)cc2)CC(C)(C)c2c1[nH]c1ccccc21 [Reference Compound 1, 1-methylethyl-1,1-dimethyl-3-({4-[(3-morpholin-4-ylpropyl)oxy]phenyl}carbonyl)-1,2,3,6-tetrahydroazepino[4,5-b]indole-5-carboxylate] | 40% | 25% | 49% | 59% | 
